One data set concerns mouse prefrontal cortex. The conditions noted are these: subeffective dose of SB269970 with subeffective dose of lurasidone; awake freely moving mice; cited from earlier work.
In data set [1] the test system is acutely psychotic SCZ patients. In words: Pearl 1 and Pearl 2 six-week randomized placebo-controlled lurasidone trials, GWAS sample. Type of data set: in vivo, human. As to the method:
The clinical trials, subjects, and genotyping. The two clinical trials used for this analysis are both six-week, randomized, double-blind, lurasidone, placebo-controlled, multicenter registration trials, of DSM-IV acutely psychotic SCZ patients (Meltzer et al., 2011b; Nasrallah et al., 2013b). Patients who met TRS criteria were excluded. There were four fixed-dose treatment arms: lurasidone 40 and 120 mg/day, another atypical APD, olanzapine, 15 mg/day, and placebo (Pearl 1) (Meltzer et al., 2011b) and lurasidone 40, 80, and 120 mg/day, and placebo (Pearl 2) (Nasrallah et al., 2013b). The percentages of patients who achieved the a priori determined response: >20% improvement in ΔPANSS-T, was 61% in both the Pearl 1 and 2 studies. A total of 171/63 Caucasian and 131/54 AA for lurasidone/placebo-treated patients consented to participate in the genetic study. Ethnicity was validated as described below.
Evaluation of treatment response. The primary measure of efficacy, ΔPANSS-Total, was the difference between baseline and last observation carried forward (LOCF) for those with at least one PANSS rating after baseline. Results could be pooled across drug dosage arms because clinical change was not dose related (data not presented). The intention-to-treat (ITT) population included 157, 73, and 156 patients who received 40, 80, and 120 mg/day doses of lurasidone, respectively. Subjects within the 30th percentiles for greatest or least improvement in PANSS-Total (referred to as best and worst responders, hereafter) were included in a secondary analysis as previously done for iloperidone (Lavedan et al., 2009).
Population stratification. […] Population stratification and separation was employed throughout the following analyses. This process yielded 234 Caucasians, 171 and 63 in the lurasidone- and placebo-treated groups, respectively. There were […], 131 and 54 in the lurasidone- and placebo groups, respectively. Adjustment using the top three PCs within each ethnic group was applied to the association tests. The QQ plots indicated no marked deviations of the observed distributions from the expected null distributions with genome inflation factor=1.00 for both ethnic groups (FIG. 1c, d). Both Kolmogorov-Smimov and Shapiro-Wilk tests indicated ΔPANSS-T followed the normal distribution with skewness and kurtosis indices between-1 and +1. Therefore, no subjects had to be excluded from the analysis.

Data set [2] has as its system acutely psychotic SCZ patients. In words: PEARL 1, 2 and PEARL 3 six-week placebo-controlled lurasidone trials, GWAS subjects of the meta-analysis. The format is in vivo, human. The source says: Participants. The three clinical trials (Loebel et al., 2013a; Meltzer et al., 2011a; Nasrallah et al., 2013) used in this analysis were six-week, randomized, double-blind, placebo-controlled, multicenter registration trials, of DSM-IV acutely psychotic SCZ patients. The primary measure of efficacy, ΔPANSS-TOT, was the difference between baseline and last observation carried forward (LOCF) for those with at least one PANSS rating at, or after two weeks of treatment, (ΔPANSS-TOTLOCF6WK=PANSSTOTLOCF6WK-PANSS-TOTBaseline). The overall mean percentage of patients who achieved a priori determined response: ≥20% improvement in ΔPANSS-TOTLOCF6WK, was 61% in the PEARL 1, 2 and 3 studies. A total of 587 subjects with valid treatment response data and verified race from two ethnic populations, EUR and AFR, gave written informed consent to participate in genetics study (368 of 545 (67.5% with EUR ancestry and 219 of 403 (54.3% with AFR ancestry). These trials included a small number of patients randomized to treatment with olanzapine (PEARL 1) or quetiapine (PEARL 3). There were too few subjects with genetic data to include them as a separate group in this analysis.
PEARL 3 was considered an independent dataset due to a significant difference in PANSS-TOTBaseline, inclusion of a higher dose of lurasidone (160 mg/d), and an unequal variance, compared to PEARL 1/2, in ΔPANSS-TOTLOCF6WK by Leven test (Table 1). Samples from the corresponding placebo groups of all three trials were pooled together due to a relatively small sample size per trial and absence of significant differences in demographic and clinical data. Thus, three groups (PEARL 1+2, PEARL 3 and Placebo) per ethnicity were independently examined for quality control (QC), PCA for genetic architectures, and GWAS analyses before determining summary statistics at the individual SNP level. Both Kolmogorov-Smimov and Shapiro-Wilk tests indicated ΔPANSS-TOTLOCF6WK followed a normal distribution with skewness and kurtosis indices between −1 and +1. Therefore, no subjects were excluded from the analysis.

The conditions of data set [3]: in vivo; cited from earlier work.
Where [4] appears, read: African ancestry, Pearl 1, 2, n=124.
The mark [5] stands for this setting: African ancestry, Pearl 3, n=34.
[6] abbreviates: European ancestry, Pearl 1, 2, n=165.
Setting [7] is: European ancestry, Pearl 3, n=99.

Results on two compounds are retold here after patent US20230386637A1, “Polymorphisms for Predicting Treatment Response to Antipsychotic Drugs and Identifying New Drug Targets” (Northwestern University, priority 2018, published 2023).

With `CC1CCN(CC[C@H]2CCCN2S(=O)(=O)c2cccc(O)c2)CC1` [SB269970], the “effect on lurasidone-induced dopamine efflux” value with mouse prefrontal cortex is reported as “potentiated”.
`O=C1[C@@H]2[C@H]3CC[C@H](C3)[C@@H]2C(=O)N1C[C@@H]1CCCC[C@H]1CN1CCN(c2nsc3ccccc23)CC1` [lurasidone]: in data set [1] (African-Americans, n=131), the “PANSS anxiety/depression Change (LOCP)” value is −3.3 ± 4.1, the “PANSS disorganization Change (LOCF)” value is listed as −4.0 ± 4.4, the “PANSS excited Change (LOCF)” value is recorded as −1.2 ± 4.0 and the “PANSS negative Change (LOCF)” value is on record as −4.2 ± 4.6. Also, in data set [1] (African-Americans, n=131), the “PANSS positive Change (LOCF)” value is given as −5.3 ± 4.4 and the “PANSS total Change (LOCF)” value was −18.0 ± 16.3. Further, in data set [1] (Caucasians, n=171), the “PANSS anxiety/depression Change (LOCP)” value is −2.1 ± 4.2, the “PANSS disorganization Change (LOCF)” value is given as −4.0 ± 4.2, the “PANSS excited Change (LOCF)” value is recorded as −1.4 ± 3.7 and the “PANSS negative Change (LOCF)” value is reported as −3.3 ± 4.8. In addition, in data set [1] (Caucasians, n=171), the “PANSS positive Change (LOCF)” value is recorded as −5.1 ± 4.9 and the “PANSS total Change (LOCF)” value is on record as −15.9 ± 17.0. Moreover, the “CGI Change (LOCF)” value in data set [1] (Caucasians, n=171, lurasidone 40/80/120 mg, baseline to LOCF, mean ± SD) is on record as −1.0 ± 1.0. Besides, the “percentages of patients who achieved the a priori determined response: >20% improvement in ΔPANSS-T” value in data set [1] (both the Pearl 1 and 2 studies) was found to be 61%. Further, in data set [2] (setting [4]), the “% change of Psychopathology PANSE_NEG” value is reported as −13.44(22.75) %, the “% change of Psychopathology PANSS_POS” value is on record as −25.80(24.91) %, the “% change of Psychopathology PANSS_TOT” value was −16.55(17.79) % and the “Δ change of Psychopathology PANSS_NEG” value is −3.26(4.82). For the same compound, in data set [2] (setting [4]), the “Δ change of Psychopathology PANSS_POS” value was −5.15(4.93). In addition, the “Δ change of Psychopathology PANSS_TOT” value in data set [2] (African ancestry, Pearl 1, 2, n=124, lurasidone 40/80/120 mg/d) is recorded as −15.88(16.97). For the same compound, in data set [2] (setting [5]), the “% change of Psychopathology PANSE_NEG” value was −15.66(22.26) %, the “% change of Psychopathology PANSS_POS” value was −30.04(22.51) %, the “% change of Psychopathology PANSS_TOT” value is −22.47(19.05) % and the “Δ change of Psychopathology PANSS_NEG” value was −3.85(4.88). Further, in data set [2] (setting [5]), the “Δ change of Psychopathology PANSS_POS” value is −5.71(4.35). Besides, in data set [2] (African ancestry, Pearl 3, n=34, lurasidone 80/160 mg/d), the “Δ change of Psychopathology PANSS_TOT” value is recorded as −21.95(18.15). In data set [2] (setting [6]), the “% change of Psychopathology PANSS_NEG” value is listed as −13.44(22.75) %, the “% change of Psychopathology PANSS_POS” value is listed as −25.80(24.91) %, the “% change of Psychopathology PANSS_TOT” value was −16.55(17.79) % and the “Δ change of Psychopathology PANSS_NEG” value is recorded as −3.26(4.82). The “Δ change of Psychopathology PANSS_POS” value in data set [2] (setting [6]) is −5.15(4.93). The “Δ change of Psychopathology PANSS_TOT” value in data set [2] (European ancestry, Pearl 1, 2, n=165, lurasidone 40/80/120 mg/d) is on record as −15.88(16.97). In addition, in data set [2] (setting [7]), the “% change of Psychopathology PANSS_NEG” value was −15.66(22.26) %, the “% change of Psychopathology PANSS_POS” value was −30.04(22.51) %, the “% change of Psychopathology PANSS_TOT” value is listed as −22.47(19.05) % and the “Δ change of Psychopathology PANSS_NEG” value was −3.85(4.88). For the same compound, the “Δ change of Psychopathology PANSS_POS” value in data set [2] (setting [7]) was −5.71(4.35). In data set [2] (European ancestry, Pearl 3, n=99, lurasidone 80/160 mg/d), the “Δ change of Psychopathology PANSS_TOT” value is recorded as −21.95(18.15). In addition, the “overall mean percentage of patients who achieved a priori determined response: ≥20% improvement in ΔPANSS-TOTLOCF6WK” value in data set [2] (PEARL 1, 2 and 3 studies) is 61%. The side effect profile entry in data set [3] is on record as “relatively benign side effect profile”.
